# Assay results published in PMC6430017, “Structural and chemical insights into the covalent-allosteric inhibition of the protein kinase Akt” (Chemical Science, 2019).
# Legend:
# Experiment in all cases: SelectScreen Z'LYTE kinase profiling
# Assay type in all cases: biochemical
# Conditions in all cases: ATP at apparent KM
# PRKCQ (PKC theta) = PRKCQ (PKC theta) (Homo sapiens, UniProt Q04759)
# Description: (§1) protein kinases at a compound concentration of 1 µM. Measurements were performed in duplicates
# (§2) and at the particular apparent ATP KM of each individual kinase employing the activity based Z’LYTE®
# (§3) kinase assay of the SelectScreen® Kinase Profiling Services (ThermoFisher Scientific).
# (§4) kinases at a compound concentration of 1 µM. Measurements were performed in duplicates and at
# (§5) the particular apparent ATP KM of each individual kinase employing the activity based Z’LYTE® kinase
# (§6) assay of the SelectScreen® Kinase Profiling Services (ThermoFisher Scientific).
# PRKD2 (PKD2) = target: T1, PRKD2 (PKD2) (Homo sapiens, UniProt Q9BZL6)
# T1 sequence (Q9BZL6 1-878): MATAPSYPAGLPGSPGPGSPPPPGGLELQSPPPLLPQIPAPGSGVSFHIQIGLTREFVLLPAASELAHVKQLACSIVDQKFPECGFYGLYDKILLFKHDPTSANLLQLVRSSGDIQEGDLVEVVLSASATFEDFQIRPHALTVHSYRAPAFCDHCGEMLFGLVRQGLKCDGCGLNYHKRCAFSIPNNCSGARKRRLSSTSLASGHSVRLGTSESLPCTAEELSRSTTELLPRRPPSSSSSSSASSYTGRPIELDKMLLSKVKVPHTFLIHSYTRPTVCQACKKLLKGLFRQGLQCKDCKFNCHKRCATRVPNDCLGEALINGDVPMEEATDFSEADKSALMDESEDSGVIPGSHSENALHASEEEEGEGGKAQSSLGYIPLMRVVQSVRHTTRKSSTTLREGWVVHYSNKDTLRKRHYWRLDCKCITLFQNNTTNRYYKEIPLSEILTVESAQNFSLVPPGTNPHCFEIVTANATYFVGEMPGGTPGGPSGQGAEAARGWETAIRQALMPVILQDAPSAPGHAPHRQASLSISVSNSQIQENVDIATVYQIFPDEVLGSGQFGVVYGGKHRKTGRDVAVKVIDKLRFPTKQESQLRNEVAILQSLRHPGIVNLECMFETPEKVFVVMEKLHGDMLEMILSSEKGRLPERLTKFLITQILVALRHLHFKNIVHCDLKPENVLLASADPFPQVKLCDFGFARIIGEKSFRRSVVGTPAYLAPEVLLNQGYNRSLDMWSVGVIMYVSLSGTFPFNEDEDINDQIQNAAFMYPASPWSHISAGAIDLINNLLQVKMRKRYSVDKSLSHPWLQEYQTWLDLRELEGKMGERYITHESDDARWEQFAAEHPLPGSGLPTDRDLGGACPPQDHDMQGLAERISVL
# Description: as §1, §2, §3, §4, §5, §6
# [1] = target: MAPK14 (p38 alpha) Direct (Homo sapiens, UniProt Q16539)
# MAPK14 (p38 alpha) Direct, sequence (Q16539 whole entry): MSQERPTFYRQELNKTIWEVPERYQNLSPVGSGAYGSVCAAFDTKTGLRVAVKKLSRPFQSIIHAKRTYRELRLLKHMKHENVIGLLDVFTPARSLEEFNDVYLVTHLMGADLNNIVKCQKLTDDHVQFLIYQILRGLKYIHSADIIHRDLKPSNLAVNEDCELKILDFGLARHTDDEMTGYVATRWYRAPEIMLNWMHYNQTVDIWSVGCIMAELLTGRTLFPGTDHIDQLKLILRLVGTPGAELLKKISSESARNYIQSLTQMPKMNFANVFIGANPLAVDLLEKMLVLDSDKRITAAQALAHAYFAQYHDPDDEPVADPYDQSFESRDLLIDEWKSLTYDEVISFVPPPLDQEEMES
# Description: as §1, §2, §3, §4, §5, §6
# ERBB2 (HER2) = ERBB2 (HER2) (Homo sapiens, UniProt P04626)
# ERBB2 (HER2), sequence (P04626 23-1255): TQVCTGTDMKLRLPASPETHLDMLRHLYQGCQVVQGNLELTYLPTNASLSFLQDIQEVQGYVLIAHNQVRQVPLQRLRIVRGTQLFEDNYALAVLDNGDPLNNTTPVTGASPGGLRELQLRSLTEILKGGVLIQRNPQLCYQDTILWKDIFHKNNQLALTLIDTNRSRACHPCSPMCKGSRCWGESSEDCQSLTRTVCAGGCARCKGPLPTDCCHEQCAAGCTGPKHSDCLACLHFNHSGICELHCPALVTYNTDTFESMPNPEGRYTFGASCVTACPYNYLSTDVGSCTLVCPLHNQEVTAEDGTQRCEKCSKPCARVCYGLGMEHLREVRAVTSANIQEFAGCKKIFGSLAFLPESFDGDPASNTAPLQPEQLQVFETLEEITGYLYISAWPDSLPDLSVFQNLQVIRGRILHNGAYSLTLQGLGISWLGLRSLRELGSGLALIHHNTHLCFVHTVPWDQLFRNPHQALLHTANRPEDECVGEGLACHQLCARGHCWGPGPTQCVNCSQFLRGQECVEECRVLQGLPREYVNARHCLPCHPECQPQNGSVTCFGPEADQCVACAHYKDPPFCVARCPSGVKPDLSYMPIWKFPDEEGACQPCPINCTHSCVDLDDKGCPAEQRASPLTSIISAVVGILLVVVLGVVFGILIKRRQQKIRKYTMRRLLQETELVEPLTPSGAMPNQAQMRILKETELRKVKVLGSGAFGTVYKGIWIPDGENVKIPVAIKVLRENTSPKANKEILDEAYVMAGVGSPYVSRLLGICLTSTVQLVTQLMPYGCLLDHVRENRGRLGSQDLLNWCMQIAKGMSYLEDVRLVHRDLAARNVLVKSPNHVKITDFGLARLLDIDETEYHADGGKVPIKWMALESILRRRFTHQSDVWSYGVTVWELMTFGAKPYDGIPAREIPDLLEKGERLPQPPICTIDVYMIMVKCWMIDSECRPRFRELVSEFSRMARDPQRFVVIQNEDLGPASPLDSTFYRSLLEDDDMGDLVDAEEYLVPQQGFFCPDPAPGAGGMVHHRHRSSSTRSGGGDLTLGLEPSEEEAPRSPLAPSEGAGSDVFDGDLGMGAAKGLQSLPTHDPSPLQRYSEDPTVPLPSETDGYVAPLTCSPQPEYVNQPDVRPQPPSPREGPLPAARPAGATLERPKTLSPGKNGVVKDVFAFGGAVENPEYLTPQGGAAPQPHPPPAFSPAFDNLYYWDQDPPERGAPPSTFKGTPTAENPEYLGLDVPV
# Description: as §1, §2, §3, §4, §5, §6
# RPS6KA5 (MSK1) = RPS6KA5 (MSK1) (Homo sapiens, UniProt O75582)
# Description: as §1, §2, §3, §4, §5, §6
# CDK1/cyclin B = CDK1/cyclin B (Homo sapiens, UniProt P06493)
# CDK1/cyclin B, sequence (P06493 whole entry): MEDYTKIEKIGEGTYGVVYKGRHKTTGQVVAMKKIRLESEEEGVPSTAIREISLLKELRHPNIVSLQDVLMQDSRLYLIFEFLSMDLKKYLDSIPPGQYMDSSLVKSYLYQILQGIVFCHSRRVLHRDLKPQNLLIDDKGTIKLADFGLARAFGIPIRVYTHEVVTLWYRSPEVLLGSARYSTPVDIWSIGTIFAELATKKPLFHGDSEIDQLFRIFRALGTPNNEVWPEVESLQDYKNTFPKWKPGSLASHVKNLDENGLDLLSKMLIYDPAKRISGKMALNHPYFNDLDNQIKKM
# CDK1/cyclin B, sequence (P14635 whole entry partner): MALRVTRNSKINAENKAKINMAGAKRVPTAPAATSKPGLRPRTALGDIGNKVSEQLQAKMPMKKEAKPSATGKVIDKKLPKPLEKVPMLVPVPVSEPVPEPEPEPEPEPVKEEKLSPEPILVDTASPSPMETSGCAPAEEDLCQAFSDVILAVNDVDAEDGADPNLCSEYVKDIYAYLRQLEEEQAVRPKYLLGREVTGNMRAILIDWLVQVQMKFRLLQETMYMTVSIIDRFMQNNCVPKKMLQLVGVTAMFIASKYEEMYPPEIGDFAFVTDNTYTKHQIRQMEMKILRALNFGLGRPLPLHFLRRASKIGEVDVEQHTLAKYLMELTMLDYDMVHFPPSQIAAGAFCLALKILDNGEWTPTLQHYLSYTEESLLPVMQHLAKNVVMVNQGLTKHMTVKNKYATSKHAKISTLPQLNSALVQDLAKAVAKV
# Description: as §1, §2, §3, §4, §5, §6
# MAPKAPK3 = MAPKAPK3 (Homo sapiens, UniProt Q16644)
# MAPKAPK3, sequence (Q16644 whole entry): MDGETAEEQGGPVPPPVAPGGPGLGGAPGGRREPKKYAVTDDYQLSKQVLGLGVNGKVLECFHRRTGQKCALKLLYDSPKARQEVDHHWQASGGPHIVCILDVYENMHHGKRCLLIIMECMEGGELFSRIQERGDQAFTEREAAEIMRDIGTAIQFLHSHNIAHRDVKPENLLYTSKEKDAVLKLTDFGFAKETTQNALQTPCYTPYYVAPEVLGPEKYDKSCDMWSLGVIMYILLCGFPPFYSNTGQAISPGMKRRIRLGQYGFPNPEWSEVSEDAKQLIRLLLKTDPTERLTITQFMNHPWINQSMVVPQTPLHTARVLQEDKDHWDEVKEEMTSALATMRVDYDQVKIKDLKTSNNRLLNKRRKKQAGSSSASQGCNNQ
# Description: as §1, §2, §3, §4, §5, §6
# BTK = BTK (Homo sapiens, UniProt Q06187)
# Description: as §1, §2, §3, §4, §5, §6
# EGFR (ErbB1) = EGFR (ErbB1) (Homo sapiens, UniProt P00533)
# EGFR (ErbB1), sequence (P00533 25-1210): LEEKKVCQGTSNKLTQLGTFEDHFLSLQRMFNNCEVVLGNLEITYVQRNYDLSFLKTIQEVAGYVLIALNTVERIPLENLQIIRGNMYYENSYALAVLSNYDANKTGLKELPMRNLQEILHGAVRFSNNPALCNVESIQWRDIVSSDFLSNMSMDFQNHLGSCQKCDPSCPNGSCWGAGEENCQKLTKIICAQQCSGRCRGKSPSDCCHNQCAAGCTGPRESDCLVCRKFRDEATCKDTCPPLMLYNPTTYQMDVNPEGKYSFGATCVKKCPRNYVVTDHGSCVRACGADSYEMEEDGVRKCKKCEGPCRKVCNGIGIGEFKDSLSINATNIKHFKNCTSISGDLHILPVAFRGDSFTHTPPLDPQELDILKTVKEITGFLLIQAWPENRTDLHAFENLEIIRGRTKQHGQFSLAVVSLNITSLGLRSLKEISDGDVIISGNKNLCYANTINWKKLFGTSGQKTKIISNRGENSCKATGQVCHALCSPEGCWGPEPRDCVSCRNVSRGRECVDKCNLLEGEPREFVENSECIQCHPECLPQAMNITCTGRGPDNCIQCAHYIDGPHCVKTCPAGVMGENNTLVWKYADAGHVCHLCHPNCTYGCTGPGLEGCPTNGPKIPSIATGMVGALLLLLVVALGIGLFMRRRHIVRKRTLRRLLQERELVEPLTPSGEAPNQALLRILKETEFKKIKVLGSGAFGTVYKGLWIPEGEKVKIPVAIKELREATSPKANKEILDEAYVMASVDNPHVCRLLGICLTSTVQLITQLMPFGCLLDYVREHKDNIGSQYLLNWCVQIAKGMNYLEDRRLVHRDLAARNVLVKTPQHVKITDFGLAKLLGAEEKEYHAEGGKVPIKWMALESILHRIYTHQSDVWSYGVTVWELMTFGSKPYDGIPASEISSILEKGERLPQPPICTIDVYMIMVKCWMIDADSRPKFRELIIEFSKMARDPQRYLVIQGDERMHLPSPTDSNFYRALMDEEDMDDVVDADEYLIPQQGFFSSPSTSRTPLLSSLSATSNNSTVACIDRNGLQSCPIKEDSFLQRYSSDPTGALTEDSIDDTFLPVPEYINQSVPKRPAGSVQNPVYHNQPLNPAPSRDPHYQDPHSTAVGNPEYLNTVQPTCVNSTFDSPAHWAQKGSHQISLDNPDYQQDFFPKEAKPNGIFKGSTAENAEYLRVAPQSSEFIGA
# Description: as §1, §2, §3, §4, §5, §6
# MARK3 = MARK3 (Homo sapiens, UniProt P27448)
# MARK3, sequence (P27448 whole entry): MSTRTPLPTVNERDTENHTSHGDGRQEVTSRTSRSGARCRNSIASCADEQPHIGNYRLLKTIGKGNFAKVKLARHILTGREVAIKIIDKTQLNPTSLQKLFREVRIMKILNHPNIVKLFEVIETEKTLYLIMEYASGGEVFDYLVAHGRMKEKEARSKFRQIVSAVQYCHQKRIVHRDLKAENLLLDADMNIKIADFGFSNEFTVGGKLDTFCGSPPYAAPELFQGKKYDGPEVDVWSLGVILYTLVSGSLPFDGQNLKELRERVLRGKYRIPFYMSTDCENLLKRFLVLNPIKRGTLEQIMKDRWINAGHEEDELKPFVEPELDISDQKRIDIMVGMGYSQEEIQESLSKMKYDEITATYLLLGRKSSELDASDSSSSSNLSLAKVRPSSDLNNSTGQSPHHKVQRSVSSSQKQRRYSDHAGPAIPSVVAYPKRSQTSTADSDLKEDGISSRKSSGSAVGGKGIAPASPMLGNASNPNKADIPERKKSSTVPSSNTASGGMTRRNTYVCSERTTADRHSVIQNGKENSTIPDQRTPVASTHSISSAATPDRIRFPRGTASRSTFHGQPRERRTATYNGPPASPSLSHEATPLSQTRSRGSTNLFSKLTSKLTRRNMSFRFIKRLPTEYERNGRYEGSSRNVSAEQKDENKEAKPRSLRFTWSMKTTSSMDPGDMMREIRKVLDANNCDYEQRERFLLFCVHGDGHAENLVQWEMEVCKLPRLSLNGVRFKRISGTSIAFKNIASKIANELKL
# Description: as §1, §2, §3, §4, §5, §6
# CAMK4 (CaMKIV) = target: T2, CAMK4 (CaMKIV) (Homo sapiens, UniProt Q16566)
# T2 sequence (Q16566 1-473): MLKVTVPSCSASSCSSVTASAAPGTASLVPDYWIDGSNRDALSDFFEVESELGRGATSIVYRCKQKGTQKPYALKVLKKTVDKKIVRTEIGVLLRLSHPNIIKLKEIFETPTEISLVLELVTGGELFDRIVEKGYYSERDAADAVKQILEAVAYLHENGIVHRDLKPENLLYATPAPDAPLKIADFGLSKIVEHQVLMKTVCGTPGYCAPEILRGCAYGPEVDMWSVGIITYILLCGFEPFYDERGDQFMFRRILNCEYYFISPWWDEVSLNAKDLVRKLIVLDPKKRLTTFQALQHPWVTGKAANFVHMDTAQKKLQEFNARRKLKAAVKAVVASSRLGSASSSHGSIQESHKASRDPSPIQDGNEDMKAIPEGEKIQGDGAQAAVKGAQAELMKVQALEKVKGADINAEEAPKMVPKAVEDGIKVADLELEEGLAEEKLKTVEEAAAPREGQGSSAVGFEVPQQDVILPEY
# Description: as §1, §2, §3, §4, §5, §6
SMILES,inhibition at 1 µM (PRKCQ (PKC theta)) [%],inhibition at 1 µM (PRKD2 (PKD2)) [%],inhibition at 1 µM [1] [%],inhibition at 1 µM (ERBB2 (HER2)) [%],inhibition at 1 µM (RPS6KA5 (MSK1)) [%],inhibition at 1 µM (CDK1/cyclin B) [%],inhibition at 1 µM (MAPKAPK3) [%],inhibition at 1 µM (BTK) [%],inhibition at 1 µM (EGFR (ErbB1)) [%],inhibition at 1 µM (MARK3) [%],inhibition at 1 µM (CAMK4 (CaMKIV)) [%]
C=CC(=O)Nc1cc(NC(=O)NC2CCN(Cc3ccc(-c4nc5cc[nH]c(=O)c5cc4-c4ccccc4)cc3)CC2)ccc1Cl [compound 27],11,5,10,0,13,3,23,10,2,3,8
C=CC(=O)Nc1cccc(C(=O)NC2CCN(Cc3ccc(-c4nc5cc[nH]c(=O)c5cc4-c4ccccc4)cc3)CC2)c1 [30b],13,4,6,-2,13,3,23,22,1,3,10
C=CC(=O)Nc1ccc2c(c1)n(C1CCN(Cc3ccc(-c4nc5cc[nH]c(=O)c5cc4-c4ccccc4)cc3)CC1)c(=O)n2C [24b],7,3,2,-1,8,3,23,12,-8,-1,-1
